Legend:
blackgrass = assay: Test D preemergence; type: in vivo, Alopecurus myosuroides; details: for Plant response rating: Blackgrass: scale 0 to 100
Text: (§1) Seeds of plant species selected from bluegrass (annual bluegrass, Poa annua), blackgrass (Alopecurus myosuroides), canarygrass (Phalaris minor), chickweed (common chickweed, Stellaria media), galium (catchweed bedstraw, Galium aparine), bromegrass, down (downy bromegrass, Bromus tectorum), Russian thistle (Salsola kali), field poppy (Papaver rhoeas), field violet (Viola arvensis), foxtail, green (green foxtail, Setaria viridis), deadnettle (henbit deadnettle, Lamium amplexicaule), ryegrass, Ital. (Italian ryegrass, Lolium multiflorum), kochia (Kochia scoparia), lambsquarters (Chenopodium album), oilseed rape (Brassica napus), pigweed (Amaranthus retroflexus), chamomile (scentless chamomile, Matricaria inodora), speedwell (bird's-eye speedwell, Veronica persica), barley, spring (spring barley, Hordeum vulgare), wheat, spring (spring wheat, Triticum aestivum), buckwheat, wild (wild buckwheat, Polygonum convolvulus), wild mustard (Sinapis arvensis), oat, wild (wild oat, Avena fatua), radish, wild (wild radish, Raphanus raphanistrum), […]), barley, winter (winter barley, Hordeum vulgare), and wheat, winter (winter wheat, Triticum aestivum) were planted into a silt loam soil and treated preemergence with test chemicals formulated in a non-phytotoxic solvent mixture which included a surfactant. At the same time, these species were planted in pots containing Sunshine Redi-Earth® planting medium comprising spaghnum peat moss, vermiculite, starter nutrients and dolomitic limestone and treated with postemergence applications of the test chemicals formulated in the same manner. Plants ranged in height from 2 to 18 cm (1- to 4-leaf stage). Treated plants and controls were maintained in a controlled growth environment for 14 to 21 d after which time all species were compared to controls and visually evaluated. […] A dash (-) response means no test result.

Russian thistle = assay: Test D preemergence; type: in vivo, Salsola kali; details: for Plant response rating: Russian Thistle: scale 0 to 100
Text: as §1

barley, spring = assay: Test D preemergence; type: in vivo, Hordeum vulgare; details: for Plant response rating: Barley, Spring: scale 0 to 100
Text: as §1

barley, winter = assay: Test D preemergence; type: in vivo, Hordeum vulgare; details: for Plant response rating: Barley, Winter: scale 0 to 100
Text: as §1

wild mustard = assay: Test D preemergence; type: in vivo, Sinapis arvensis; details: for Plant response rating: Mustard, Wild: scale 0 to 100
Text: as §1

chickweed = assay: Test D postemergence; type: in vivo, Stellaria media; details: scale 0 to 100
Text: as §1

galium [1] = assay: Test D postemergence; type: in vivo, Galium aparine; details: scale 0 to 100
Text: as §1

deadnettle = assay: Test D postemergence; type: in vivo, Lamium amplexicaule; details: scale 0 to 100
Text: as §1

velvetleaf = assay: Test A postemergence; type: in vivo, Abutilon theophrasti; details: Abutilon theophrasti, post-emergence, 240 h, 0 to 100 scale (0 no effect, 100 complete control), approx. 10 d, read-out: Plant response rating, Velvetleaf
Procedure, shortened: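 Herbicidal response was scored on plants treated pre- or postemergence with surfactant-containing, non-phytotoxic solvent formulations. Preemergence meant a directed spray onto soil (loam–sand) holding sown seed; postemergence plants were at one to two leaves.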

ryegrass, Italian = assay: Test C preemergence; type: in vivo, Lolium multiflorum; details: for Ryegrass, Italian plant response rating (0 to 100): Preemergence, visual rating after 13 to 15 d; for Plant response rating (scale of 0 to 100 where 0 is no effect and 100 is complete control): Ryegrass, Italian, preemergence
Text: (§2) Seeds of plant species selected from blackgrass (Alopecurus myosuroides), ryegrass, Italian (Italian ryegrass, Lolium multiflorum), wheat (winter wheat, Triticum aestivum), galium (catchweed bedstraw, Galium aparine), corn (Zea mays), crabgrass, large (large crabgrass, Digitaria sanguinalis), foxtail, giant, (giant foxtail, Setaria faberii), johnsongrass (Sorghum halepense), lambsquarters (Chenopodium album), morningglory (Ipomoea coccinea), nutsedge, yellow (yellow nutsedge, Cyperus esculentus), pigweed (Amaranthus retroflexus), ragweed (common ragweed, Ambrosia elatior), soybean (Glycine max), barnyardgrass (Echinochloa crus-galli), oilseed rape (Brassica napus), waterhemp (common waterhemp, Amaranthus rudis), and velvetleaf (Abutilon theophrasti) were planted into a blend of loam soil and sand and treated preemergence with test chemicals formulated in a non-phytotoxic solvent mixture which included a surfactant. At the same time, plants selected from these crop and weed species and also chickweed (common chickweed, Stellaria media), oat, wild (wild oat, Avena fatua), and kochia (Kochia scoparia), were planted in pots containing Sunshine Redi-Earth® planting medium comprising spaghnum peat moss, vermiculite, starter nutrients and dolomitic limestone and treated with postemergence applications of test chemicals formulated in the same manner. Plants ranged in height from 2 to 18 cm (1- to 4-leaf stage) for postemergence treatments. […] A dash (-) response means no test result.

galium [2] = assay: Test C preemergence; type: in vivo, Galium aparine; details: for Plant response rating (scale of 0 to 100 where 0 is no effect and 100 is complete control): Galium, preemergence; for Galium plant response rating (0 to 100): Preemergence, visual rating after 13 to 15 d
Text: as §2

johnsongrass = assay: Test C preemergence; type: in vivo, Sorghum halepense; details: for Plant response rating (scale of 0 to 100 where 0 is no effect and 100 is complete control): Johnsongrass, preemergence; for Johnsongrass plant response rating (0 to 100): Preemergence, visual rating after 13 to 15 d
Text: as §2

nutsedge, yellow = assay: Test C preemergence; type: in vivo, Cyperus esculentus; details: for Plant response rating (scale of 0 to 100 where 0 is no effect and 100 is complete control): Nutsedge, Yellow, preemergence; for Nutsedge, Yellow plant response rating (0 to 100): Preemergence, visual rating after 13 to 15 d
Text: as §2

[3] = 16 g ai/ha, 0 is no effect, 100 is complete control

COc1nc(-c2ccc(Cl)cc2)nn1Cc1ccnc(C(F)(F)F)c1 [Compound 28]
Plant response rating (0 to 100), Blackgrass (blackgrass; [3]): 30
Plant response rating: Blackgrass (blackgrass; 31 g ai/ha): 30
Plant response rating: Blackgrass (blackgrass; 62 g ai/ha): 50
Plant response rating: Blackgrass (blackgrass; 125 g ai/ha): 50
Plant response rating (0 to 100), Russian Thistle (Russian thistle; [3]): 70
Plant response rating: Russian Thistle (Russian thistle; 62 g ai/ha): 85
Plant response rating: Russian Thistle (Russian thistle; 125 g ai/ha): 85
Plant response rating (0 to 100), Barley, Spring (barley, spring; [3]): 15
Plant response rating: Barley, Spring (barley, spring; 31 g ai/ha): 20
Plant response rating: Barley, Spring (barley, spring; 62 g ai/ha): 20
Plant response rating: Barley, Spring (barley, spring; 125 g ai/ha): 25
Plant response rating (0 to 100), Barley, Winter (barley, winter; [3]): 10
Plant response rating: Barley, Winter (barley, winter; 31 g ai/ha): 15
Plant response rating: Barley, Winter (barley, winter; 62 g ai/ha): 20
Plant response rating: Barley, Winter (barley, winter; 125 g ai/ha): 25
Plant response rating (0 to 100), Mustard, Wild (wild mustard; [3]): 90
Plant response rating: Mustard, Wild (wild mustard; 62 g ai/ha): 100
Plant response rating: Mustard, Wild (wild mustard; 125 g ai/ha): 100
Plant response rating: Chickweed (chickweed; 16 g ai/ha): 65
Plant response rating: Chickweed (chickweed; 31 g ai/ha): 70
Plant response rating: Chickweed (chickweed; 62 g ai/ha): 70
Plant response rating: Chickweed (chickweed; 125 g ai/ha): 90
Plant response rating: Galium (galium [1]; 16 g ai/ha): 65
Plant response rating: Galium (galium [1]; 31 g ai/ha): 70
Plant response rating: Galium (galium [1]; 62 g ai/ha): 75
Plant response rating: Galium (galium [1]; 125 g ai/ha): 80
Plant response rating: Deadnettle (deadnettle; 16 g ai/ha): 50
Plant response rating: Deadnettle (deadnettle; 31 g ai/ha): 60
Plant response rating: Deadnettle (deadnettle; 62 g ai/ha): 70
Plant response rating: Deadnettle (deadnettle; 125 g ai/ha): 75

CCOc1nc(-c2ccc(F)cc2)nn1Cc1ccnc(C(F)(F)F)c1 [Compound 8, 4-[[5-ethoxy-3-(4-fluorophenyl)-1H-1,2,4-triazol-1-yl]methyl]-2-(trifluoromethyl)pyridine]
pest or weed control at 125 g/ha (velvetleaf; 125 g ai/ha): 90%
pest or weed control at 500 g/ha (velvetleaf; 500 g ai/ha): 100%
Ryegrass, Italian plant response rating (0 to 100) (ryegrass, Italian; 31 g ai/ha): 50
Ryegrass, Italian plant response rating (0 to 100) (ryegrass, Italian; 62 g ai/ha): 80
Plant response rating (scale of 0 to 100 where 0 is no effect and 100 is complete control) (ryegrass, Italian; 125 g ai/ha): 90
Plant response rating (scale of 0 to 100 where 0 is no effect and 100 is complete control) (ryegrass, Italian; 250 g ai/ha): 90
Plant response rating (scale of 0 to 100 where 0 is no effect and 100 is complete control) (galium [2]; 125 g ai/ha): 100
Plant response rating (scale of 0 to 100 where 0 is no effect and 100 is complete control) (galium [2]; 250 g ai/ha): 100
Galium plant response rating (0 to 100) (galium [2]; 31 g ai/ha): 80
Galium plant response rating (0 to 100) (galium [2]; 62 g ai/ha): 100
Plant response rating (scale of 0 to 100 where 0 is no effect and 100 is complete control) (johnsongrass; 125 g ai/ha): 98
Plant response rating (scale of 0 to 100 where 0 is no effect and 100 is complete control) (johnsongrass; 250 g ai/ha): 100
Johnsongrass plant response rating (0 to 100) (johnsongrass; 31 g ai/ha): 85
Johnsongrass plant response rating (0 to 100) (johnsongrass; 62 g ai/ha): 98
Plant response rating (scale of 0 to 100 where 0 is no effect and 100 is complete control) (nutsedge, yellow; 125 g ai/ha): 55
Plant response rating (scale of 0 to 100 where 0 is no effect and 100 is complete control) (nutsedge, yellow; 250 g ai/ha): 80
Nutsedge, Yellow plant response rating (0 to 100) (nutsedge, yellow; 31 g ai/ha): 10
Nutsedge, Yellow plant response rating (0 to 100) (nutsedge, yellow; 62 g ai/ha): 40
Plant response rating: Blackgrass (blackgrass; 31 g ai/ha): 65
Plant response rating: Blackgrass (blackgrass; 62 g ai/ha): 70
Plant response rating: Blackgrass (blackgrass; 125 g ai/ha): 100
Plant response rating: Blackgrass (blackgrass; 250 g ai/ha): 100
Plant response rating: Barley, Spring (barley, spring; 31 g ai/ha): 5
Plant response rating: Barley, Spring (barley, spring; 62 g ai/ha): 20
Plant response rating: Barley, Spring (barley, spring; 125 g ai/ha): 45
Plant response rating: Barley, Spring (barley, spring; 250 g ai/ha): 60
Plant response rating: Barley, Winter (barley, winter; 31 g ai/ha): 5
Plant response rating: Barley, Winter (barley, winter; 62 g ai/ha): 25
Plant response rating: Barley, Winter (barley, winter; 125 g ai/ha): 35
Plant response rating: Barley, Winter (barley, winter; 250 g ai/ha): 45
Plant response rating: Mustard, Wild (wild mustard; 62 g ai/ha): 100
Plant response rating: Mustard, Wild (wild mustard; 125 g ai/ha): 100
Plant response rating: Mustard, Wild (wild mustard; 250 g ai/ha): 100
Plant response rating: Chickweed (chickweed; 31 g ai/ha): 80
Plant response rating: Chickweed (chickweed; 62 g ai/ha): 85
Plant response rating: Chickweed (chickweed; 125 g ai/ha): 85
Plant response rating: Chickweed (chickweed; 250 g ai/ha): 90
Plant response rating: Galium (galium [1]; 31 g ai/ha): 75
Plant response rating: Galium (galium [1]; 62 g ai/ha): 90
Plant response rating: Galium (galium [1]; 125 g ai/ha): 95
Plant response rating: Galium (galium [1]; 250 g ai/ha): 95
Plant response rating: Deadnettle (deadnettle; 31 g ai/ha): 75
Plant response rating: Deadnettle (deadnettle; 62 g ai/ha): 80
Plant response rating: Deadnettle (deadnettle; 125 g ai/ha): 95
Plant response rating: Deadnettle (deadnettle; 250 g ai/ha): 90

— patent publication US10681909B2, “Herbicidal triazoles” (FMC Corporation, priority 2014, dated 2020)
